Reference: US20070020193A1, “Dronabinol compositions and methods for using same” (priority 2005, published 2007)
“Also recorded” adds a separate entry of the source. Marks after values point to notes of the source that are not given here.

Tests used:
[1] = tested on: healthy subjects; design: species or system human; conditions: in vivo
[2] = Example 2 multiple rising dose inhaled delta-9-THC study: plasma pharmacokinetics; conditions: for AUC(0-t) / AUC(0-inf) / Cmax / half-life / Tmax: human, plasma; for AUC(0-t): AUC(0-8)
Procedure: A randomized, double-blind, placebo-controlled, multiple rising dose safety, tolerability, pharmacokinetic and pharmacodynamic study to assess two dose levels of inhaled delta-9-THC was conducted. Dose levels were studied in ascending order. Two consecutive groups (n=9/group) of healthy subjects were studied (Groups I and II). […] There was a lapse of at least 10 days between the groups for interim safety and pharmacokinetic analysis. Two dose levels were studied in ascending order. […] Subjects in each treatment Group (I or II) received single and multiple doses of inhaled delta-9-THC according to the following schedule:
For both dose levels, the first and the last dose of study drug was given under fasted conditions. Subjects were confined to the study site from the evening of Day −2 (Day 1 is the day of administration of the first dose of study drug) until the 120-hour blood sample following the final dose of study drug, resulting in an 18-day confinement period for subjects in Group I and a 25-day confinement period for Group II. Between the completion of Group I and the start of Group II, an interim safety and pharmacokinetic analysis was performed. Based on the results of the interim analyses, the dose level for investigation in Group II was determined.
Two MDI dosage strengths were used corresponding to the same formulations used in Example 1: one delivering 0.3 mg delta-9-THC (or placebo) per actuation and one delivering 1.2 mg delta-9-THC (or placebo) per actuation. The MDI consisted of a pressurized (via propellants) container and a metered-dose valve. The propellants provided the necessary force to expel the drug, and also acted as a solvent and diluent. The canister unit was provided within a mouthpiece (oral adapter), to expel an exact amount of drug, in the proper particle size distribution, upon each actuation. Two basic formulations containing 0.3 and 1.2 mg of delta-9-THC per 50 μL were developed with propellant 1,1,1,2 tetrafluoroethane 134a (HFA 134a), and ethanol as solvent. The formulations were made in accordance with the composition used in Example 1.
Whole blood samples were collected according to the assessment flowchart in EDTA tubes through venepuncture or indwelling catheter. Samples were immediately placed on ice and subsequently centrifuged within 30 minutes at 1,500 g for 10 minutes. Plasma was transferred into a 5 ml screw cap polypropylene tube, stoppered and stored at below minus 20° C. until transfer to the analytical laboratory for analysis. […] The measurement ranges were 0.05-30 ng/ml for delta-9-THC, 0.04-30 ng/ml for 11-OH-THC, and 0.25-10 ng/ml for THC-COOH.
For Example 2: The statistical analysis encompassed an exploratory analysis of the single and multiple dose pharmacokinetics and dose proportionality of two dose levels of inhaled delta-9-THC in healthy subjects. Descriptive statistics included number of subjects, mean, standard deviation, coefficient of variation (%) and geometric mean for all pharmacokinetic parameters.
The exploratory analysis was performed on the logarithms of the dose-normalized pharmacokinetic parameters AUC(0-inf), AUC(0-t), AUC(0-τ) and Cmax. Dose proportionality was tested both at single dose and at multiple dose (steady state) by comparing the dose groups for all pharmacokinetic parameters by an analysis of variance with dose as fixed effect.
Dose proportionality was tested by the contrast between the dose groups. For this contrast on the logarithmic scale, p-values were given. After anti-logarithmic transformation, the resultant ratios of geometric means and 90% confidence intervals were given.
Accumulation was tested by comparing the steady state values for AUC(0-τ) with the single dose values for AUC(0-τ) by a mixed model analysis of variance with dose and day (with levels single dose and steady state) as fixed effects and subject within dose as random effect.

[3] = oral administration, first-pass metabolism; cited from earlier work
[4] = inhaled, 1.2 mg, Arithmetic Mean (SD), 1.2 mg m.d., Day 12, Group I
[5] = inhaled, 1.2 mg, Arithmetic Mean (SD), 1.2 mg s.d., Day 1
[6] = inhaled, 1.2 mg, Geometric Mean (Range), 1.2 mg s.d., Day 1
[7] = inhaled, 3.6 mg, Arithmetic Mean (SD), 3.6 mg m.d., Day 19, Group II
[8] = inhaled, 3.6 mg, Arithmetic Mean (SD), 3.6 mg s.d., Day 1
[9] = inhaled, 3.6 mg, Geometric Mean (Range), 3.6 mg s.d., Day 1

## CCCCCc1cc(O)c2c(c1)OC(C)(C)[C@@H]1CCC(C)=C[C@@H]21 [delta-9-THC, delta-9-tetrahydrocannabinol]
[1]
  Choice reaction time: Significant decrements
  Digit Vigilance: slight decrement; also recorded: more marked decrements; also recorded: marked decrement
  Digit Vigilance, primary analysis: failed to show significant dose-time interaction
  Immediate word recall: No significant differences
  Numeric Working Memory Speed: significant decrements
  Numeric Working memory sensitivity index: No significant differences
  Spatial Working Memory Sensitivity Index: No significant differences
  Spatial Working Memory Speed: No significant differences
  delay of effects on VAS: up to two hours
  delay of effects on cognitive functioning: up to one hour
  delayed word recall, analysis: significant main effect of dose
  picture recognition sensitivity index: did not show any significant differences
  picture recognition speed: No significant differences
  word recognition speed: did not show any significant differences
  word sensitivity index (word recognition): No significant differences
[2]; 1.2 mg delta-9-THC three times daily
  achievement of steady state: apparently reached after six days of dosing
[2]; 8-hours dosing interval
  accumulation during multiple dosing: no statistically significant accumulation
[2]; Group I, 1.2 mg
  Ratio AUC(0-8) m.d./AUC(0-8) s.d. (Accumulation factor), Mean: 0.85
  Ratio AUC(0-8) m.d./AUC(0-inf) s.d. (Linearity), Mean: 0.79
[2]; Group II, 3.6 mg
  Ratio AUC(0-8) m.d./AUC(0-8) s.d. (Accumulation factor), Mean: 1.15
  Ratio AUC(0-8) m.d./AUC(0-inf) s.d. (Linearity), Mean: 1.02
[2]; Multiple dose
  dose proportionality: geometric mean ratio (3.6 mg:1.2 mg) of dose-normalized AUC(0-8) (90% confidence interval): 1.10 (0.55-2.18)
  dose proportionality: geometric mean ratio (3.6 mg:1.2 mg) of dose-normalized Cmax (90% confidence interval): 1.81 (0.52-6.24)
[2]; Single dose
  dose proportionality: geometric mean ratio (3.6 mg:1.2 mg) of dose-normalized AUC(0-8) (90% confidence interval): 0.77 (0.50-1.18)*
  dose proportionality: geometric mean ratio (3.6 mg:1.2 mg) of dose-normalized AUC(0-inf) (90% confidence interval): 0.79 (0.51-1.23)
  dose proportionality: geometric mean ratio (3.6 mg:1.2 mg) of dose-normalized AUC(0-t) (90% confidence interval): 0.81 (0.52-1.25)
  dose proportionality: geometric mean ratio (3.6 mg:1.2 mg) of dose-normalized Cmax (90% confidence interval): 0.71 (0.38-1.37)
[2]; after single or multiple dose administration
  dose proportionality of pharmacokinetic parameters: not found to deviate significantly
[2]; both dose levels
  plasma concentration-time curve, elimination profile: at least a bi-phasic elimination profile
[2]; both dose levels, inhaled
  systemic absorption: rapid systemic absorption
[2]; [4]
  AUC(0-t): 5.74 ng·h/mL
  Cmax: 12.3 ng/mL
[2]; [5]
  AUC(0-t): 6.61 ng·h/mL
  AUC(0-inf): 7.14 ng·h/mL
[2]; inhaled, 1.2 mg, Geometric Mean (Range), 1.2 mg m.d., Day 12, Group I
  AUC(0-t): 4.52 ng·h/mL
[2]; [6]
  AUC(0-t): 6.1 ng·h/mL
  AUC(0-inf): 6.55 ng·h/mL
[2]; inhaled, 1.2 mg, Arithmetic Mean (SD), 1.2 mg s.d., Day 1, plasma
  Cmax: 24 ng/mL
[2]; inhaled, 1.2 mg, Geometric Mean (Range), 1.2 mg m.d. (three times daily), Day 12, Group I
  Cmax: 6.9 ng/mL
[2]; inhaled, 1.2 mg, Geometric Mean (Range), 1.2 mg s.d., Day 1, plasma
  Cmax: 19.7 ng/mL
[2]; inhaled, 1.2 mg, terminal elimination half-life, multiple dosing
  half-life: 24 h
[2]; inhaled, 1.2 mg, tmax, Arithmetic Mean (SD), 1.2 mg m.d., Day 12, Group I
  Tmax: 3.6 min
[2]; inhaled, 1.2 mg, tmax, Arithmetic Mean (SD), 1.2 mg s.d., Day 1
  Tmax: 2.4 min
[2]; inhaled, 1.2 mg, tmax, median (range), 1.2 mg m.d., Day 12, Group I
  Tmax: 3.6 min
[2]; inhaled, 1.2 mg, tmax, median (range), 1.2 mg s.d., Day 1
  Tmax: 1.8 min
[2]; inhaled, 1.2 mg, t½, Arithmetic Mean (SD), 1.2 mg m.d., Day 12, Group I
  half-life: 29.1 h
[2]; inhaled, 1.2 mg, t½, Arithmetic Mean (SD), 1.2 mg s.d., Day 1
  half-life: 4.02 h
[2]; inhaled, 1.2 mg, t½, Geometric Mean (Range), 1.2 mg m.d., Day 12, Group I
  half-life: 25.3 h
[2]; inhaled, 1.2 mg, t½, Geometric Mean (Range), 1.2 mg s.d., Day 1
  half-life: 3.39 h
[2]; [7]
  AUC(0-t): 15.8 ng·h/mL
  Cmax: 40.4 ng/mL
[2]; [8]
  AUC(0-t): 14.7 ng·h/mL
  AUC(0-inf): 16.3 ng·h/mL
[2]; inhaled, 3.6 mg, Geometric Mean (Range), 3.6 mg m.d., Day 19, Group II
  AUC(0-t): 14.9 ng·h/mL
[2]; [9]
  AUC(0-t): 14 ng·h/mL
  AUC(0-inf): 15.6 ng·h/mL
[2]; inhaled, 3.6 mg, Arithmetic Mean (SD), 3.6 mg s.d., Day 1, plasma
  Cmax: 44.7 ng/mL
[2]; inhaled, 3.6 mg, Geometric Mean (Range), 3.6 mg m.d. (three times daily), Day 19, Group II
  Cmax: 37.4 ng/mL
[2]; inhaled, 3.6 mg, Geometric Mean (Range), 3.6 mg s.d., Day 1, plasma
  Cmax: 42.5 ng/mL
[2]; inhaled, 3.6 mg, Terminal elimination half-lives (summary estimate), summary, best estimated after multiple dosing
  half-life: ~93 h
[2]; inhaled, 3.6 mg, terminal elimination half-life, multiple dosing
  half-life: 93 h
[2]; inhaled, 3.6 mg, tmax, Arithmetic Mean (SD), 3.6 mg m.d., Day 19, Group II
  Tmax: 2.4 min
[2]; inhaled, 3.6 mg, tmax, Arithmetic Mean (SD), 3.6 mg s.d., Day 1
  Tmax: 4.8 min
[2]; inhaled, 3.6 mg, tmax, median (range), 3.6 mg m.d., Day 19, Group II
  Tmax: 1.8 min
[2]; inhaled, 3.6 mg, tmax, median (range), 3.6 mg s.d., Day 1
  Tmax: 4.8 min
[2]; inhaled, 3.6 mg, t½, Arithmetic Mean (SD), 3.6 mg m.d., Day 19, Group II
  half-life: 94.8 h
[2]; inhaled, 3.6 mg, t½, Arithmetic Mean (SD), 3.6 mg s.d., Day 1
  half-life: 6.41 h
[2]; inhaled, 3.6 mg, t½, Geometric Mean (Range), 3.6 mg m.d., Day 19, Group II
  half-life: 92.9 h
[2]; inhaled, 3.6 mg, t½, Geometric Mean (Range), 3.6 mg s.d., Day 1
  half-life: 6.01 h
[2]; inhaled, Tmax range, both dose levels, after single and multiple dose administration
  Tmax: 1.8 to 4.8 min
[2]; in vivo
  ratios of AUC(0-8) after multiple dosing versus AUC(0-inf) after single dose (linearity): did not deviate clearly or significantly from unity
[2]; single and multiple dose administration, 1.2 and 3.6 mg
  Cmax and AUC values versus dose: Dose-related increases
[3]
  part of an orally administered dose that reaches systemic circulation: 10-20%
